# Laboratory results reported in patent publication US20050142581A1, “Microrna as ligands and target molecules” (priority 2003, published 2005).
# Oligonucleotides are written 5' to 3', each unit as a sugar letter and its base; * is a phosphorothioate linkage, no mark a phosphodiester; rarer units and linkages stand in square brackets, end groups in braces. Plain capitals give the bases only. d = 2'-deoxy (DNA)
# Tested on: human CD40 mRNA
# Experiment: Inhibition of CD40 mRNA levels by oligonucleotides (real-time RT-PCR)
# Assay type: cell-based
# Design: concentration or dose not given beside the values
# Conditions: oligodeoxynucleotides with phosphorothioate backbones throughout; averages from three experiments
# Experimental: When cells reach about 80% confluency, they are treated with oligonucleotide. For cells grown in 96-well plates, wells are washed once with 200 μl Opti-MEM-1 reduced-serum medium (Life Technologies) and then treated with 130 μl of Opti-MEM-1 containing 3.75 μg/ml LIPOFECTIN (Life Technologies) and the desired oligonucleotide at a final concentration of 150 nM. After 4 hours of treatment, the medium was replaced with fresh medium. Cells were harvested 16 hours after oligonucleotide treatment.
# Poly(A)+ mRNA was isolated according to Miura et al. (Clin. Chem., 1996, 42, 1758). Briefly, for cells grown on 96-well plates, growth medium was removed from the cells and each well was washed with 200 ul cold PBS. 60 ul lysis buffer (10 mM Tris-HCl, pH 7.6, 1 mM EDTA, 0.5 M NaCl, 0.5% NP-40, 20 mM vanadyl-ribonucleoside complex) was added to each well, the plate was gently agitated and then incubated at room temperature for five minutes. 55 ul of lysate was transferred to Oligo d(T) coated 96 well plates (AGCT Inc., Irvine, Calif.). Plates were incubated for 60 minutes at room temperature, washed 3 times with 200 ul of wash buffer (10 mM Tris-HCl pH 7.6, 1 mM EDTA, 0.3 M NaCl). After the final wash, the plate was blotted on paper towels to remove excess wash buffer and then air-dried for 5 minutes. 60 ul of elution buffer (5 mM Tris-HCl pH 7.6), preheated to 70° C. was added to each well, the plate was incubated on a 90° hot plate for 5 minutes, and the eluate then transferred to a fresh 96 well plate. Cells grown on 100 mm or other standard plates may be treated similarly, using appropriate volumes of all solutions.
# Quantitation of CD40 mRNA levels was determined by real-time PCR (RT-PCR) using the ABI PRISM 7700 Sequence Detection System (PE-Applied Biosystems, Foster City, Calif.) according to manufacturer's instructions. This is a closed-tube, non-gel-based, fluorescence detection system which allows high-throughput quantitation of polymerase chain reaction (PCR) products in real-time.
# As opposed to standard PCR, in which amplification products are quantitated after the PCR is completed, products in RT-PCR are quantitated as they accumulate. This is accomplished by including in the PCR reaction an oligonucleotide probe that anneals specifically between the forward and reverse PCR primers, and contains two fluorescent dyes. A reporter dye (e.g., JOE or FAM, PE-Applied Biosystems, Foster City, Calif.) is attached to the 5′ end of the probe and a quencher dye (e.g., TAMRA, PE-Applied Biosystems, Foster City, Calif.) is attached to the 3′ end of the probe. When the probe and dyes are intact, reporter dye emission is quenched by the proximity of the 3′ quencher dye. During amplification, annealing of the probe to the target sequence creates a substrate that can be cleaved by the 5′-exonuclease activity of Taq polymerase.
# With each cycle, additional reporter dye molecules are cleaved from their respective probes, and the fluorescence intensity is monitored at regular (six-second) intervals by laser optics built into the ABI PRISM 7700 Sequence Detection System. In each assay, a series of parallel reactions containing serial dilutions of mRNA from untreated control samples generates a standard curve that is used to quantitate the percent inhibition after antisense oligonucleotide treatment of test samples.
# RT-PCR reagents were obtained from PE-Applied Biosystems, Foster City, Calif. RT-PCR reactions were carried out by adding 25 ul PCR cocktail (1× Taqman buffer A, 5.5 mM MgCl2, 300 uM each of dATP, dCTP and dGTP, 600 uM of dUTP, 100 nM each of forward primer, reverse primer, and probe, 20 U RNAse inhibitor, 1.25 units AmpliTaq Gold, and 12.5 U MuLV reverse transcriptase) to 96 well plates containing 25 ul poly(A) mRNA solution. […]
row,Substance,% INHIB. (Inhibition of CD40 mRNA Levels by Phosphorothioate Oligodeoxynucleotides) [%]
1,18623 (DNA dC*dC*dA*dG*dG*dC*dG*dG*dC*dA*dG*dG*dA*dC*dC*dA*dC*dT; antisense) [compound 18623],30.71
2,18624 (DNA dG*dA*dC*dC*dA*dG*dG*dC*dG*dG*dC*dA*dG*dG*dA*dC*dC*dA; antisense) [compound 18624],28.09
3,18625 (DNA dA*dG*dG*dT*dG*dA*dG*dA*dC*dC*dA*dG*dG*dC*dG*dG*dC*dA; antisense) [compound 18625],21.89
4,18626 (DNA dC*dA*dG*dA*dG*dG*dC*dA*dG*dA*dC*dG*dA*dA*dC*dC*dA*dT; antisense) [compound 18626],0.00
5,18627 (DNA dG*dC*dA*dG*dA*dG*dG*dC*dA*dG*dA*dC*dG*dA*dA*dC*dC*dA; antisense) [compound 18627],0.00
6,18628 (DNA dG*dC*dA*dA*dG*dC*dA*dG*dC*dC*dC*dC*dA*dG*dA*dG*dG*dA; antisense) [compound 18628],0.00
7,18629 (DNA dG*dG*dT*dC*dA*dG*dC*dA*dA*dG*dC*dA*dG*dC*dC*dC*dC*dA; antisense) [compound 18629],29.96
8,18630 (DNA dG*dA*dC*dA*dG*dC*dG*dG*dT*dC*dA*dG*dC*dA*dA*dG*dC*dA; antisense) [compound 18630],0.00
9,18631 (DNA dG*dA*dT*dG*dG*dA*dC*dA*dG*dC*dG*dG*dT*dC*dA*dG*dC*dA; antisense) [compound 18631],0.00
10,18632 (DNA dT*dC*dT*dG*dG*dA*dT*dG*dG*dA*dC*dA*dG*dC*dG*dG*dT*dC; antisense) [compound 18632],0.00
11,18633 (DNA dG*dG*dT*dG*dG*dT*dT*dC*dT*dG*dG*dA*dT*dG*dG*dA*dC*dA; antisense) [compound 18633],0.00
12,18634 (DNA dG*dT*dG*dG*dG*dT*dG*dG*dT*dT*dC*dT*dG*dG*dA*dT*dG*dG; antisense) [compound 18634],0.00
13,18635 (DNA dG*dC*dA*dG*dT*dG*dG*dG*dT*dG*dG*dT*dT*dC*dT*dG*dG*dA; antisense) [compound 18635],0.00
14,18636 (DNA dC*dA*dC*dA*dA*dA*dG*dA*dA*dC*dA*dG*dC*dA*dC*dT*dG*dA; antisense) [compound 18636],0.00
15,18637 (DNA dC*dT*dG*dG*dC*dA*dC*dA*dA*dA*dG*dA*dA*dC*dA*dG*dC*dA; antisense) [compound 18637],0.00
16,18638 (DNA dT*dC*dC*dT*dG*dG*dC*dT*dG*dG*dC*dA*dC*dA*dA*dA*dG*dA; antisense) [compound 18638],0.00
17,18639 (DNA dC*dT*dG*dT*dC*dC*dT*dG*dG*dC*dT*dG*dG*dC*dA*dC*dA*dA; antisense) [compound 18639],4.99
18,18640 (DNA dC*dT*dC*dA*dC*dC*dA*dG*dT*dT*dT*dC*dT*dG*dT*dC*dC*dT; antisense) [compound 18640],0.00
19,18641 (DNA dT*dC*dA*dC*dT*dC*dA*dC*dC*dA*dG*dT*dT*dT*dC*dT*dG*dT; antisense) [compound 18641],0.00

row,Substance,% INHIB. (Inhibition of CD40 mRNA Levels by Phosphorothioate Oligodeoxynucleotides) [%]
1,18642 (DNA dG*dT*dG*dC*dA*dG*dT*dC*dA*dC*dT*dC*dA*dC*dC*dA*dG*dT; antisense) [compound 18642],0.00
2,18643 (DNA dA*dC*dT*dC*dT*dG*dT*dG*dC*dA*dG*dT*dC*dA*dC*dT*dC*dA; antisense) [compound 18643],0.00
3,18644 (DNA dC*dA*dG*dT*dG*dA*dA*dC*dT*dC*dT*dG*dT*dG*dC*dA*dG*dT; antisense) [compound 18644],5.30
4,18645 (DNA dA*dT*dT*dC*dC*dG*dT*dT*dT*dC*dA*dG*dT*dG*dA*dA*dC*dT; antisense) [compound 18645],0.00
5,18646 (DNA dG*dA*dA*dG*dG*dC*dA*dT*dT*dC*dC*dG*dT*dT*dT*dC*dA*dG; antisense) [compound 18646],9.00
6,18647 (DNA dT*dT*dC*dA*dC*dC*dG*dC*dA*dA*dG*dG*dA*dA*dG*dG*dC*dA; antisense) [compound 18647],0.00
7,18648 (DNA dC*dT*dC*dT*dG*dT*dT*dC*dC*dA*dG*dG*dT*dG*dT*dC*dT*dA; antisense) [compound 18648],0.00
8,18649 (DNA dC*dT*dG*dG*dT*dG*dG*dC*dA*dG*dT*dG*dT*dG*dT*dC*dT*dC; antisense) [compound 18649],0.00
9,18650 (DNA dT*dG*dG*dG*dG*dT*dC*dG*dC*dA*dG*dT*dA*dT*dT*dT*dG*dT; antisense) [compound 18650],0.00
10,18651 (DNA dG*dG*dT*dT*dG*dG*dG*dG*dT*dC*dG*dC*dA*dG*dT*dA*dT*dT; antisense) [compound 18651],0.00
11,18652 (DNA dC*dT*dA*dG*dG*dT*dT*dG*dG*dG*dG*dT*dC*dG*dC*dA*dG*dT; antisense) [compound 18652],0.00
12,18653 (DNA dG*dG*dT*dG*dC*dC*dC*dT*dT*dC*dT*dG*dC*dT*dG*dG*dA*dC; antisense) [compound 18653],19.67
13,18654 (DNA dC*dT*dG*dA*dG*dG*dT*dG*dC*dC*dC*dT*dT*dC*dT*dG*dC*dT; antisense) [compound 18654],15.63
14,18655 (DNA dG*dT*dG*dT*dC*dT*dG*dT*dT*dT*dC*dT*dG*dA*dG*dG*dT*dG; antisense) [compound 18655],0.00
15,18656 (DNA dT*dG*dG*dT*dG*dT*dC*dT*dG*dT*dT*dT*dC*dT*dG*dA*dG*dG; antisense) [compound 18656],0.00
16,18657 (DNA dA*dC*dA*dG*dG*dT*dG*dC*dA*dG*dA*dT*dG*dG*dT*dG*dT*dC; antisense) [compound 18657],0.00
17,18658 (DNA dT*dT*dC*dA*dC*dA*dG*dG*dT*dG*dC*dA*dG*dA*dT*dG*dG*dT; antisense) [compound 18658],0.00
18,18659 (DNA dG*dT*dG*dC*dC*dA*dG*dC*dC*dT*dT*dC*dT*dT*dC*dA*dC*dA; antisense) [compound 18659],5.67
19,18660 (DNA dT*dA*dC*dA*dG*dT*dG*dC*dC*dA*dG*dC*dC*dT*dT*dC*dT*dT; antisense) [compound 18660],7.80
